Measurements reported in article PMC6912361, “Systemic Toxicity Reported for CDK8/19 Inhibitors CCT251921 and MSC2530818 Is Not Due to Target Inhibition” (Cells, 2019).
pIC50, pKd: −log10 of the molar value. Where “and” joins values, the source holds several entries; their conditions need not be identical. Identical values can stand only once. Like-named read-outs stand apart in the source and are kept apart here.

How the values were obtained:
[1] = parameters: method as in PMID 27935476; conditions: colon cancer and leukemia mouse xenograft models; cited from earlier work
CDK8 [2] = molecular target: T1, CDK8 (Homo sapiens, UniProt P49336); experiment: KdELECT Kd determination, CDK8; type: binding; parameters: purchased DiscoverX
Description: (§1) To determine dissociation constants (Kds) of compounds on different targets, an 11-point 3-fold serial dilution of each test compound was tested in independent duplicate assays.
Target sequence in this assay (P49336 whole entry): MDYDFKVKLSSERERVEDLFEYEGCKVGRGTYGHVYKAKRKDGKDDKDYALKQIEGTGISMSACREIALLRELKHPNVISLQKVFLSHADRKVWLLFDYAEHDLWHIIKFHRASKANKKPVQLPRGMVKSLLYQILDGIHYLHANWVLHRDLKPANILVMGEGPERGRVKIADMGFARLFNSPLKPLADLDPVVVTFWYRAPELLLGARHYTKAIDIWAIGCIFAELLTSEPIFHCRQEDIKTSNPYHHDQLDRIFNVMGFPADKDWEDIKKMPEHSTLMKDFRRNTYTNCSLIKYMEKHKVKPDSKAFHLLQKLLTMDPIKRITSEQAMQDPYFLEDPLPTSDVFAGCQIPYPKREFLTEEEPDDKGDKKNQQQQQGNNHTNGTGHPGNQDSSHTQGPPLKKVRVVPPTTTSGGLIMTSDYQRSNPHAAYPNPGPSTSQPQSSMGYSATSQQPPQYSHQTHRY

[3] = system: dechorionated zebrafish embryos (Danio rerio, AB strain); experiment: Zebrafish toxicity assay, mechanically dechorionated embryos (AB strain); type: in vivo; conditions: 1 μM; starting after 72 hpt
Description: The toxicity screen using dechorionated zebrafish embryos (Danio rerio, AB strain) was performed by Arkana Laboratories, Little Rock, AR, as a service. The toxicity of different CDK8/19 inhibitors was evaluated in sterile 96-well plates with U-shaped bottoms. 12 wells (i.e., biological replicates) per test chemical and the vehicle control (0.1% DMSO) were used and the experiment was performed in triplicate. Treatment was performed via addition of 20 µL of 10× concentrations of each tested compound in 1% DMSO-containing egg water to each well containing one 24 hpf (hours post fertilization) mechanically-dechorionated embryo in 180 µL volume of egg water (i.e., 0.1% final DMSO concentration). The fish embryos cultured at 28.5 °C were examined at 24, 48, 72 and 96 h post treatment (hpt) and scored as “healthy”, “abnormal” or “dead”. Phenotypes observed and assessed as abnormal included: cardiac edema (intermediate and severe stages), overall edema, enlarged head, malformation of the eyes, curved body axis, shortened body axis and malformation of the tail. […] Positive control 3,4-dichloroaniline (3,4-DCA) was tested at 8 mg/L.

CDK8 [4] = molecular target: T1, CDK8; experiment: Cell-based QPCR assay of CDK8/19-dependent gene expression, HEK293 CDK19 single-knockout (19KO) cells; parameters: CDK19 single-knockout (19KO); endogenous in cells; host or cells: HEK293 CDK19 knockout (19KO); conditions: HEK293 19KO, 1 h pre-treatment, then 10 ng/mL TNFα 2 h
Target sequence in this assay (P49336 whole entry): as above
Target sequence in this assay (P24863 whole entry partner): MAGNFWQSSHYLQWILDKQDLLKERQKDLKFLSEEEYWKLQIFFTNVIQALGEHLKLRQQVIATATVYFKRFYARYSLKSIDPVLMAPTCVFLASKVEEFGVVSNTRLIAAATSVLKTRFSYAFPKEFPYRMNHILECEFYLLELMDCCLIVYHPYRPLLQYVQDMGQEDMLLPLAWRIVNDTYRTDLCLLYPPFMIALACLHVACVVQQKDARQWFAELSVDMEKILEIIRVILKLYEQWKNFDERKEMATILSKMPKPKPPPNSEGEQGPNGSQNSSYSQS
Description: (§5) CDK8/CDK19 single knockout and double knockout derivatives of human embryonic kidney (HEK) 293 cells (ATCC CRL-1573) were generated as previously described [18]. All cells were cultured in DMEM (high-glucose) media supplemented with 10% fetal bovine serum (FBS) and Penicillin-Streptomycin-Glutamine (1×) at 37 °C with 5% CO2 and routinely confirmed to be free of mycoplasma.
(§6) Total RNA was extracted using RNAeasy Mini Kit (Qiagen, Germantown, MD, USA) and 1 µg of total RNA was used to generate cDNA using iScript cDNA synthesis kit (Bio-Rad Laboratories, Hercules, CA, USA). Gene expression was quantified using iTaq Universal SYBR green super mix using CFX384 Real-Time System (Bio-Rad).
(§7) The IC50 values for different inhibitors in inhibiting CDK8/19-dependent gene expression were calculated using a three-parameter least square (ordinary) fitting method with GraphPad Prism 7.0 (GraphPad Software, San Diego, CA, USA). The Kruskal–Wallis non-parametric ANOVA was used to compare gene expression levels under no-inhibitor conditions between wild-type cells and knockout derivatives (8KO, 19KO and dKO) with GraphPad Prism 7.0.
(§8) Cells were pre-treated with different concentrations of CDK8/19 inhibitors for 1 h and then 10 ng/mL TNFα, an inducer of transcription factor NFκB, which is potentiated by CDK8/19 [5], was added for 2 h before RNA extraction. QPCR was carried out to quantify CDK8/19-regulated expression of NFκB-inducible genes CXCL1 and CXCL8 and the basal expression of MYC.

GSK3A = molecular target: T2, GSK3A (Homo sapiens, UniProt P49840); experiment: KdELECT Kd determination, GSK3A; conditions: 11-point 3-fold serial dilution, duplicate; read-out: Kd for the inhibition of nucleotide binding, GSK3A
T2 construct: purchased DiscoverX
Description: (§2) The screening platform employs an active site-directed competition binding assay to quantitatively measure interactions between test compounds and targeting kinases. […] To determine dissociation constants (Kds) of compounds on different targets, an 11-point 3-fold serial dilution of each test compound was tested in independent duplicate assays.
(§3) This assay has been previously used with many CDK8/19 inhibitors, including cortistatin A and its equipotent analog dCA [20, 21]; 15w.

[5] = system: non-dechorionated embryos of zebrafish TU strain; experiment: Zebrafish toxicity assay, non-dechorionated embryos (TU strain); type: in vivo; conditions: all the tested concentrations (0.5 μM, 1 μM and 2 μM); 3-5 days
Description: The toxicity studies in non-dechorionated embryos of zebrafish TU strain were approved by the Institutional Animal Care and Use Committee of the University of South Carolina. The studies were conducted in sterile 24-well plates with one 24 hpf embryo in each well in a 1 mL volume of egg water. For each plate, 6 wells were treated with vehicle control and the other 18 wells (i.e., biological replicates) were treated with different CDK8/19 inhibitors at different concentrations. […] All the data from the plates with at least five healthy vehicle-treated embryos on day 5 were compiled together for final data analysis.

CDK19 [6] = molecular target: T3, CDK19 (Homo sapiens, UniProt Q9BWU1); experiment: Cell-based QPCR assay of CDK8/19-dependent gene expression, HEK293 CDK8 single-knockout (8KO) cells; parameters: CDK8 single-knockout (8KO); endogenous in cells; host or cells: HEK293 CDK8 knockout (8KO); conditions: 8KO, HEK293 8KO, 1 h pre-treatment, then 10 ng/mL TNFα 2 h
Target sequence in this assay (Q9BWU1 whole entry): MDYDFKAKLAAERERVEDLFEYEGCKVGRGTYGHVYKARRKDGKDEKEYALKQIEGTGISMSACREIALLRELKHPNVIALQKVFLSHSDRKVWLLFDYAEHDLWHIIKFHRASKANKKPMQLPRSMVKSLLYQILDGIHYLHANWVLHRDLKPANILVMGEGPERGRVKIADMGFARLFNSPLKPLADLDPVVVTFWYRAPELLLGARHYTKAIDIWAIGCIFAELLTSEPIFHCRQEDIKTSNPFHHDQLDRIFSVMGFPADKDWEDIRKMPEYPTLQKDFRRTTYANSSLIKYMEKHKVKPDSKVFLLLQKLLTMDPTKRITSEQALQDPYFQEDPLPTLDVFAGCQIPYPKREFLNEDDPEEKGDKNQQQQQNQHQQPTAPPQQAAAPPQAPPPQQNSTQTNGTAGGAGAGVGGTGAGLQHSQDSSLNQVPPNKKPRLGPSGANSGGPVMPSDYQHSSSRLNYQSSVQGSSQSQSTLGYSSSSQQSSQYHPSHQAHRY
Target sequence in this assay (P24863 whole entry partner): as the sequence (P24863 whole entry partner) above
Description: as §5, §6, §7, §8

GSK3B = molecular target: T4, GSK3B (Homo sapiens, UniProt P49841); experiment: KdELECT Kd determination, GSK3B; conditions: 11-point 3-fold serial dilution, duplicate; read-out: Kd for the inhibition of nucleotide binding, GSK3B
T4 construct: purchased DiscoverX
Description: as §1

GSK3β = molecular target: T5, GSK3β (Homo sapiens, UniProt P49841); experiment: ADP-Glo Kinase Assay, GSK3β kinase activity; type: biochemical; conditions: 25 μM ATP, 60 min, room temperature
T5 construct: purchased Promega
Description: Effects of different compounds on GSK3β kinase activity were evaluated using ADP-Glo^TM Kinase Assay kit and GSK3β Kinase Enzyme System (Promega, Madison, WI, USA). Kinase reactions were carried out at room temperature for 60 min. Each reaction contained 1 ng GSK3β enzyme, 25 μM ATP, 0.2 μg/μL GSK3 substrate and test compounds at different concentrations. Equal volume of ADP-Glo reagent was then added to kinase reaction and incubated at room temperature for 40 min, followed by the addition of Kinase Detection Reagent and incubation at room temperature for another 20 min. Bioluminescence signals were measured in 384-well plates using ChemiDoc Touch™ (Bio-Rad) and ImageLab software (Bio-Rad, Version 5.2.1 build 11). Effects of inhibitors were presented as relative kinase activity, calculated from […].

CDK19 [7] = molecular target: T3, CDK19; experiment: KdELECT Kd determination, CDK19; type: binding; parameters: purchased DiscoverX
Description: as §1
Target sequence in this assay (Q9BWU1 whole entry): as the sequence (Q9BWU1 whole entry) above

CDK8/19 = experiment: Cell-based QPCR assay of CDK8/19-dependent gene expression, HEK293 parental (WT) cells; parameters: species or system human
Description: All cells were cultured in DMEM (high-glucose) media supplemented with 10% fetal bovine serum (FBS) and Penicillin-Streptomycin-Glutamine (1×) at 37 °C with 5% CO2 and routinely confirmed to be free of mycoplasma.
as §6
The IC50 values for different inhibitors in inhibiting CDK8/19-dependent gene expression were calculated using a three-parameter least square (ordinary) fitting method with GraphPad Prism 7.0 (GraphPad Software, San Diego, CA, USA).
as §8

dogs = conditions: cited from earlier work
rats = conditions: cited from earlier work
[8] = system: STAT1 S727 phosphorylation; parameters: method as in patent application US 2017/0115308A1; conditions: ref patent application US 2017/0115308A1; cited from earlier work
[9] = system: STAT1 S727 phosphorylation; experiment: Basal STAT1 S727 phosphorylation in rat neurons in culture; type: cell-based; conditions: not shown
[10] = system: STAT1 S727 phosphorylation; experiment: Western blot of STAT1 S727 phosphorylation in NIH 3T3 cells; type: cell-based, murine; conditions: 1 μM
Description: (§4) Cells were cultured in 60-mm dishes and treated under different conditions before being lysed in RIPA lysis buffer with protease/phosphatase inhibitor cocktail. The protein concentration of extracts was determined using the DC protein assay (Bio-Rad Laboratories). Protein samples (50 μg) were resolved on 4–12% Express-Plus PAGE gels in Tris-MOPS (SDS) running buffer (GenScript, Piscataway, NJ, USA), transferred to PVDF membranes and incubated at 4 °C overnight with primary antibodies STAT1 (sc-592, Santa Cruz Biotechnology, Dallas, TX, USA) and pSTAT1-Ser727 (#8826, Cell Signaling Technology, Danvers, MA, USA) followed by anti-rabbit (NA934, GE Healthcare, Chicago, IL, USA) secondary antibodies. Bands were visualized with Western Lighting Plus ECL detection reagent (Perkin Elmer, Waltham, MA, USA) using ChemiDoc Touch™ (Bio-Rad). Images were analyzed using ImageLab (Bio-Rad) and ImageJ (version 1.52p) software for protein signal quantification.

[11] = system: STAT1 S727 phosphorylation; experiment: Western blot of STAT1 S727 phosphorylation in 293-WT cells; type: cell-based, human; conditions: 1 μM
Description: as §4

PIKFYVE = PIKFYVE (Homo sapiens, UniProt Q9Y2I7); experiment: KdELECT Kd determination, PIKFYVE; parameters: purchased DiscoverX; conditions: 11-point 3-fold serial dilution, duplicate; read-out: Kd for the inhibition of nucleotide binding, PIKFYVE
Description: as §2, §3

JNK1 (MAPK8) = molecular target: T6, JNK1 (MAPK8) (Homo sapiens, UniProt P45983); experiment: KdELECT Kd determination, JNK1; conditions: 11-point 3-fold serial dilution, duplicate; read-out: Kd for the inhibition of nucleotide binding, JNK1 (MAPK8)
T6 construct: purchased DiscoverX
Description: as §2, §3

STK16 = molecular target: T7, STK16 (Homo sapiens, UniProt O75716); experiment: KdELECT Kd determination, STK16; conditions: 11-point 3-fold serial dilution, duplicate; read-out: Kd for the inhibition of nucleotide binding, STK16
T7 construct: purchased DiscoverX
Description: as §2, §3

MAP4K2 = molecular target: T8, MAP4K2 (Homo sapiens, UniProt Q12851); experiment: KdELECT Kd determination, MAP4K2; conditions: 11-point 3-fold serial dilution, duplicate; read-out: Kd for the inhibition of nucleotide binding, MAP4K2
T8 construct: purchased DiscoverX
T8 sequence (Q12851 1-820): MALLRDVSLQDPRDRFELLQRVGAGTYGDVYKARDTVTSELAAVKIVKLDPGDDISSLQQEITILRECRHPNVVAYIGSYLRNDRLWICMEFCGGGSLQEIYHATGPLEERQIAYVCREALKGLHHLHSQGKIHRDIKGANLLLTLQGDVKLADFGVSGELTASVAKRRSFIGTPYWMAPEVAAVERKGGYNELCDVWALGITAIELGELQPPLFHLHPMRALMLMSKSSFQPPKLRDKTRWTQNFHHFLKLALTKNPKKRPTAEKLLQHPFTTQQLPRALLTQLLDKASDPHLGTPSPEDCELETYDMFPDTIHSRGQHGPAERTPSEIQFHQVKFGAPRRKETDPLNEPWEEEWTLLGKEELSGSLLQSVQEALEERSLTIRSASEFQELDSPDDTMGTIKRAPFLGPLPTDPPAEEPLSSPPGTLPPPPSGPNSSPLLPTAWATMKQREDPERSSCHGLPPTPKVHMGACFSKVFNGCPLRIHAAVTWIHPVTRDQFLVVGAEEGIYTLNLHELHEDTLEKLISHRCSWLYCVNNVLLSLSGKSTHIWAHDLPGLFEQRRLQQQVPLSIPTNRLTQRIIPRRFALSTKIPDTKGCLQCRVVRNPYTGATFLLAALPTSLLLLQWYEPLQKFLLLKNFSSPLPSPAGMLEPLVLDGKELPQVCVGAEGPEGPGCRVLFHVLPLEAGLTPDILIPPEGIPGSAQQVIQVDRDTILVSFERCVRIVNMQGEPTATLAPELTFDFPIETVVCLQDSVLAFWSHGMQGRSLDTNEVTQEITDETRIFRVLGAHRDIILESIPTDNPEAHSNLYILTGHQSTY
Description: as §2, §3

T5 sequence (P49841 whole entry): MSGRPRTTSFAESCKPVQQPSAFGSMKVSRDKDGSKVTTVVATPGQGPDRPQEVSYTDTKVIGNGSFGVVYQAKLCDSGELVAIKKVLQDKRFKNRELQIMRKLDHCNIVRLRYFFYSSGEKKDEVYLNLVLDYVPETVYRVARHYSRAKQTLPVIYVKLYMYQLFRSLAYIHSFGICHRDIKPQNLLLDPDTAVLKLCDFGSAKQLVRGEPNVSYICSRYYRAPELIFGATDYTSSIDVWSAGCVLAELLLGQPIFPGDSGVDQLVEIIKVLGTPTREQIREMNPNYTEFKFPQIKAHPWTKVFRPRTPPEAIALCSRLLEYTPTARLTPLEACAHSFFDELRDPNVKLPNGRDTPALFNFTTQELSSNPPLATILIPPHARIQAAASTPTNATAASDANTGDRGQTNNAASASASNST
T2 sequence (P49840 whole entry): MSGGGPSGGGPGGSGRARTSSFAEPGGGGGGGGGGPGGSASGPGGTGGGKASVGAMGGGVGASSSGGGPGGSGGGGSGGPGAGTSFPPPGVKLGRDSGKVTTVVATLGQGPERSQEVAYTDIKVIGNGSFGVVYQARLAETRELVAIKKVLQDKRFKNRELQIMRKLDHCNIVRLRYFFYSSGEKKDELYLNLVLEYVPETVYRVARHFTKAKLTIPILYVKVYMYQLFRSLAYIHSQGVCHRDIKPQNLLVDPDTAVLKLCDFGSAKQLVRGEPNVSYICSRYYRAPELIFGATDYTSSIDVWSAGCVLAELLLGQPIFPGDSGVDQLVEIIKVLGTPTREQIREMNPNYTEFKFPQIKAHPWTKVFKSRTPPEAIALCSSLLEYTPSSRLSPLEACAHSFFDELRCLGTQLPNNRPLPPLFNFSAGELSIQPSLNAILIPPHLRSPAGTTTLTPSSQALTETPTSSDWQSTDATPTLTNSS
T4 sequence (P49841 whole entry): as the sequence (P49841 whole entry) above
T6 sequence (P45983 whole entry): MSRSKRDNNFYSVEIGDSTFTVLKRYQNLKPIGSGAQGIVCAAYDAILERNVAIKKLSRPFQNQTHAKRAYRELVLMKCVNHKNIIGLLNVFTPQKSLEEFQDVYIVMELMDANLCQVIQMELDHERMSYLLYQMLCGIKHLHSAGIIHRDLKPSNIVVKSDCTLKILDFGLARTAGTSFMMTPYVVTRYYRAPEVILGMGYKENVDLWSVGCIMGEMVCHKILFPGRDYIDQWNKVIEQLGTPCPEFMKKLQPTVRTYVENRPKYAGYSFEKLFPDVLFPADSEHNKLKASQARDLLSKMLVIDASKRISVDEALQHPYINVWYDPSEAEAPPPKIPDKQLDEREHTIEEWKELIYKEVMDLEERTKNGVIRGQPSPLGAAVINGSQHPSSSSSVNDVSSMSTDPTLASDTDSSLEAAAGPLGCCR
T7 sequence (O75716 whole entry): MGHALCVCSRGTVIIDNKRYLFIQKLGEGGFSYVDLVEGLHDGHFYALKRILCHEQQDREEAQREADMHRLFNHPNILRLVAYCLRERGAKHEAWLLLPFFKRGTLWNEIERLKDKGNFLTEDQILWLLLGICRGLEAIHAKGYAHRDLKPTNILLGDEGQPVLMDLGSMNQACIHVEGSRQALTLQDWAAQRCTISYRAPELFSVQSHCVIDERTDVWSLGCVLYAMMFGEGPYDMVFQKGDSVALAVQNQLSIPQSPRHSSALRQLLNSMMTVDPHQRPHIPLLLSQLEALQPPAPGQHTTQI

Cc1n[nH]c2ncc(C(=O)N3CCC[C@H]3c3ccc(Cl)cc3)cc12 [Cmpd4]
Weight loss in mice [1]: detectable weight loss
pKd (CDK8 [2]): 6.94
Toxicity in dechorionated AB zebrafish larvae [3]: severe toxicity
pIC50 (CDK8 [4]; IC50, CXCL1 mRNA expression, 19KO): 8.49
pIC50 (CDK8 [4]; IC50, CXCL8 mRNA expression, 19KO): 8.51
pIC50 (CDK8 [4]; IC50, MYC mRNA expression, 19KO): 8.72
pKd (GSK3A): 6.35
Toxicity in TU strain zebrafish embryos [5]: very strong toxicity
pIC50 (CDK19 [6]; IC50, CXCL1 mRNA expression): 8.62
pIC50 (CDK19 [6]; IC50, CXCL8 mRNA expression): 8.72
pIC50 (CDK19 [6]; IC50, MYC mRNA expression): 8.85
pKd (GSK3B): 6.72
pIC50 (GSK3β): ~6.40 and 6.40
pKd (CDK19 [7]): 7.03
pIC50 (CDK8/19; read-out: IC50, CXCL1 mRNA expression, WT; HEK293 WT; 1 h pre-treatment, then 10 ng/mL TNFα 2 h; QPCR): 8.74
pIC50 (CDK8/19; read-out: IC50, CXCL8 mRNA expression, WT; HEK293 WT; 1 h pre-treatment, then 10 ng/mL TNFα 2 h; QPCR): 8.68
pIC50 (CDK8/19; read-out: IC50, MYC mRNA expression, WT; HEK293 WT; 1 h pre-treatment, then 10 ng/mL TNFα 2 h; QPCR): 8.62
Toxicity in dogs (dogs): multiple and striking toxicities, including lethality
Toxicity in rats (rats): multiple and striking toxicities, including lethality

CN1CCN(C(=O)c2ccc3cc(CCNc4ncnc5ccc(C#N)cc45)ccc3c2)CC1 [Senexin B]
pKd (CDK8 [2]; 11-point 3-fold serial dilution, duplicate, read-out: Kd for the inhibition of nucleotide binding, CDK8): 7.23
Effect on basal STAT1 S727 phosphorylation in all the tested tumor cell lines [8]: inhibited
pIC50 (CDK8 [4]; read-out: IC50, CXCL1 mRNA expression, 19KO): 7.15
pIC50 (CDK8 [4]; read-out: IC50, CXCL8 mRNA expression, 19KO): 7.15
pIC50 (CDK8 [4]; read-out: IC50, MYC mRNA expression, 19KO): 7.29
Effect on basal STAT1 S727 phosphorylation in rat neurons in culture [9]: did not detect any effect
pKd (GSK3A): < 4.52
Effect on STAT1 S727 phosphorylation, serum-starved NIH 3T3 cells ([10]; serum starvation 24 h): inhibits STAT1 S727 phosphorylation
Effect on STAT1 S727 phosphorylation, NIH 3T3 cells after addition of serum ([10]; serum stimulation 1 h): only a minor effect
Effect on STAT1 S727 phosphorylation, WT 293 cells under standard conditions and serum-starved [11]: inhibits STAT1 S727 phosphorylation
Effect on serum-stimulated increase of STAT1 S727 phosphorylation, WT 293 cells ([11]; serum stimulation 1 h): only weakly affected
pKd (PIKFYVE): 4.85
pKd (JNK1 (MAPK8)): 5.14
pKd (STK16): 5.66
Activity in the cell-based assay (WT, 8KO and 19KO cells) (CDK8/19): an order of magnitude less active
pIC50 (CDK8/19; HEK293 WT; 1 h pre-treatment, then 10 ng/mL TNFα 2 h; QPCR; read-out: IC50, CXCL1 mRNA expression, WT): 7.17
pIC50 (CDK8/19; HEK293 WT; 1 h pre-treatment, then 10 ng/mL TNFα 2 h; QPCR; read-out: IC50, CXCL8 mRNA expression, WT): 7.09
pIC50 (CDK8/19; HEK293 WT; 1 h pre-treatment, then 10 ng/mL TNFα 2 h; QPCR; read-out: IC50, MYC mRNA expression, WT): 7.35
pKd (MAP4K2): 6.24
